The nature of experiment [1]: NIH-3T3 fibroblast cytotoxicity, dose response, cytotoxicity control, cell-based, fluorescence, Alamar Blue, secondary assay (AID 2327).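 Further: NIH-3T3 mouse fibroblasts cultured with fluconazole at 8 µg/mL.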 It counts as functional.
Experiment [2] is described as follows: fluconazole-exposed Candida albicans growth modulators – fluorescence, retest, confirmation (AID 2467). It counts as functional, cell-based.
Experiment [3] has as its target Genome polyprotein (dengue virus type 2, UniProt P29990). Kind of experiment: flavivirus cap methylation enzyme inhibition – biochemical, confirmation dose response, primary screen (AID 588689). It counts as functional.
Experiment [4] deals with Cytochrome P450 2D6 (Homo sapiens, UniProt P10635).
Sequence of Cytochrome P450 2D6 (P10635 whole entry): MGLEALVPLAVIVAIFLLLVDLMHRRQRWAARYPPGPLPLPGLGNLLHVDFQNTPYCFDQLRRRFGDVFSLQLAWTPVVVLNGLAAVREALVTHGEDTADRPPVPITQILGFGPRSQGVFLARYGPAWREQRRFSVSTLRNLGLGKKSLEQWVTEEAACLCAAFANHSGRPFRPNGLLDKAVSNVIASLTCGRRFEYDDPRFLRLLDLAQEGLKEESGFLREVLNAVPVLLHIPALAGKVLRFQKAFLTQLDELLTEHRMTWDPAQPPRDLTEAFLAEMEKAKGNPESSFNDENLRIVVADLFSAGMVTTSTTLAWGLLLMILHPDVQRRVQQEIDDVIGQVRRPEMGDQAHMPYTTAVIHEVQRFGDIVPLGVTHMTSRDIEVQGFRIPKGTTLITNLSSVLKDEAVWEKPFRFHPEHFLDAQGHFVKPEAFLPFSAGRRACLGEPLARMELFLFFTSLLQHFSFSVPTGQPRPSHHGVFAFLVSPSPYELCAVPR
For experiment [5], the target named is Cytochrome P450 3A4 (Homo sapiens, UniProt P08684).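 Further: CYP3A4 tested as one member of a cytochrome P450 panel screen.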
Sequence of Cytochrome P450 3A4 (P08684 whole entry): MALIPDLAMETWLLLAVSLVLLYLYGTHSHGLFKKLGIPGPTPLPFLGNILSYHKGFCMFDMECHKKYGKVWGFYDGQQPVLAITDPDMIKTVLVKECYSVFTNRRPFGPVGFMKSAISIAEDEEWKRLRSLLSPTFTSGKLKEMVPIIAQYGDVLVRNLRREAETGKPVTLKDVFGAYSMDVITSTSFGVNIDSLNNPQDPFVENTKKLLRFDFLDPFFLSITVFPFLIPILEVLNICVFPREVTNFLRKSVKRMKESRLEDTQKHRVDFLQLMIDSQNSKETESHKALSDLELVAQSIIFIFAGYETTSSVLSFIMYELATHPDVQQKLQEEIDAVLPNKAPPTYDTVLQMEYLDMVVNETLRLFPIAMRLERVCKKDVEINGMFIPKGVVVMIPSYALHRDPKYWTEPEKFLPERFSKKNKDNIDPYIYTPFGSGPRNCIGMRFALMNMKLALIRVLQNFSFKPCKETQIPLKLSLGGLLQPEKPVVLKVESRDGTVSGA
For experiment [6], the target named is T1, RNA-binding protein pos-1 (Caenorhabditis elegans, UniProt G5EF15).
T1 sequence (G5EF15 whole entry): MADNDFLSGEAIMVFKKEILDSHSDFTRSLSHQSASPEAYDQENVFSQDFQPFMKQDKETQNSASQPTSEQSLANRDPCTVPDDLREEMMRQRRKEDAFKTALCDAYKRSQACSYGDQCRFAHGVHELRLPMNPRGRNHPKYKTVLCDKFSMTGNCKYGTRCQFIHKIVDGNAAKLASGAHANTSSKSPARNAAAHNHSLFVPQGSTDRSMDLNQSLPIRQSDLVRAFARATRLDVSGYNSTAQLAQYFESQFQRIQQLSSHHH
The experiment in a line: disruptors of C. elegans POS-1 RNA interaction – biochemical, fluorescence polarization, dose response (AID 1964).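 Further: purified POS-1 fused to maltose binding protein made in E. coli; potency of compounds blocking POS-1 binding to fluorescent RNA.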

For experiment [7], the target named is T2, Zinc finger protein mex-5 (Caenorhabditis elegans, UniProt Q9XUB2).
T2 sequence (Q9XUB2 whole entry): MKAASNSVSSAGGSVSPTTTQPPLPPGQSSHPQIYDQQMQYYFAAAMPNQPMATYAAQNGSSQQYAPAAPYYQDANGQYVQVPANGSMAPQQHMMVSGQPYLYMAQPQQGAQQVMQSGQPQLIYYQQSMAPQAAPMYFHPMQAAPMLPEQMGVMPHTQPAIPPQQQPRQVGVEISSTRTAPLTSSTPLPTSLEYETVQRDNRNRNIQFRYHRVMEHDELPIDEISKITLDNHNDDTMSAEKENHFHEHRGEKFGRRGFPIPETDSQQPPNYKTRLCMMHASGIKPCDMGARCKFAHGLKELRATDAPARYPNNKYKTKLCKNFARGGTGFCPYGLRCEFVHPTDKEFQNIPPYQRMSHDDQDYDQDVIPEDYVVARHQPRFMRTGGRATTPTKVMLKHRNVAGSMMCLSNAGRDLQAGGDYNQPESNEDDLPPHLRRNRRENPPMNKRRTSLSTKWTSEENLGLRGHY
The experiment in a line: potency of MEX-5 RNA-binding blockers – biochemical, C. elegans, fluorescence polarization, dose response (AID 1960). (In general: Polarisation of emitted light reports the rotation of a fluorescent probe.)

Experiment [8] deals with T3, Replicative DNA helicase DnaB (Mycobacterium tuberculosis, UniProt P9WMR3).
T3 sequence (P9WMR3 whole entry): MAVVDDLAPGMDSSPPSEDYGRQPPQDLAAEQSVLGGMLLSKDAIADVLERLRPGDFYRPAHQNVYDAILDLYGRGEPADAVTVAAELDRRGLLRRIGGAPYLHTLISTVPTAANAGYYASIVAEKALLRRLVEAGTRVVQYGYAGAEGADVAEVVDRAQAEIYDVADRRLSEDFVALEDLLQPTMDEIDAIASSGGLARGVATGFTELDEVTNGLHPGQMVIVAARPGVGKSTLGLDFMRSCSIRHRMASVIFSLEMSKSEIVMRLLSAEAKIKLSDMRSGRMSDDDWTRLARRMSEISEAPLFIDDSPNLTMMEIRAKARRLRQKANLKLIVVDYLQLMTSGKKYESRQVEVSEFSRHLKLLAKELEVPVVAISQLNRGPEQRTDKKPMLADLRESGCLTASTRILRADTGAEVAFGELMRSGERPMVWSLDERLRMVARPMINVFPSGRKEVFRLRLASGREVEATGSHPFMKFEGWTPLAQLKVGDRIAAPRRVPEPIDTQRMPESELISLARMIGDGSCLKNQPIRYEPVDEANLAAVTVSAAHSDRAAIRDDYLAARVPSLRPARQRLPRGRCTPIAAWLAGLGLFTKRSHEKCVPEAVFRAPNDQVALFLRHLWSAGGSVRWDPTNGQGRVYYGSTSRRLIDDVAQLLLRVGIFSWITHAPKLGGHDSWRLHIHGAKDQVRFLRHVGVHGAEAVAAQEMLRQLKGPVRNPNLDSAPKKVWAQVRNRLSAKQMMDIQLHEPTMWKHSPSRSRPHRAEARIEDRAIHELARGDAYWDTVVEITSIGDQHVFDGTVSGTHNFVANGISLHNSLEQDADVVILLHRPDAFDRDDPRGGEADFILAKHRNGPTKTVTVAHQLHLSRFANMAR
The experiment in a line: DnaB intein splicing inhibitors, dose response, biochemical, cell-free fluorescence (AID 449749). It is filed as functional.

The target in experiment [9] is T4, Protein RecA (Mycobacterium tuberculosis, UniProt P9WHJ3).
T4 sequence (P9WHJ3 whole entry): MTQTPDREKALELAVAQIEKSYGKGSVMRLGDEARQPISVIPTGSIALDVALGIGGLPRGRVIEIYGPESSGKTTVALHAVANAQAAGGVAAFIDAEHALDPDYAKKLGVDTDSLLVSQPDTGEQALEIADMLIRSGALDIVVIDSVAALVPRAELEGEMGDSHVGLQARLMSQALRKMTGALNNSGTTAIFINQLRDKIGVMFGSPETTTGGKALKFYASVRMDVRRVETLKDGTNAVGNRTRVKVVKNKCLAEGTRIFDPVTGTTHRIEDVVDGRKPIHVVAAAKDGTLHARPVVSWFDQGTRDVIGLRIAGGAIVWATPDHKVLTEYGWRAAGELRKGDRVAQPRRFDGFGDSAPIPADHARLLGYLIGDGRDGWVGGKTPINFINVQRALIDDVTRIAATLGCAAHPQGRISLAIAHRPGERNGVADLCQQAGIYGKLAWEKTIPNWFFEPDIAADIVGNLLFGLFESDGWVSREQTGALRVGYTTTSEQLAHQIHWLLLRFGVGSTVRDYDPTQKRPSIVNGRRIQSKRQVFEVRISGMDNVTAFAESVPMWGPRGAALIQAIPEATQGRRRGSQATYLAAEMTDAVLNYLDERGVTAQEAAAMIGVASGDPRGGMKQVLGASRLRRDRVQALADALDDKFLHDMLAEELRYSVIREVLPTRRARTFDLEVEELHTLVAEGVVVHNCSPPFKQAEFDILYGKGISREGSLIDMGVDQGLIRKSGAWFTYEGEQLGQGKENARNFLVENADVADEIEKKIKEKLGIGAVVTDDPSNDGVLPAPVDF
Kind of experiment: Fluorescence Cell-Free Homogeneous Dose Retest to Identify Inhibitors of RecA-Intein Splicing Activity. [Related pubchem assays (depositor defined):AID2097, AID2223, AID489010, AID492950]. It counts as functional.

Experiment [10] concerns INS1. Kind of experiment: INS-1E survival protection against cytokine death – cell-based, luminescence, retest, dose response (AID 449756).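 Further: cell death triggered by IL-1 beta plus TNF-alpha plus IFN-gamma mixture; protective hits raise ATP signal compared with cytokine alone wells.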 It is filed as functional. The note with it: Rattus norvegicus.
The nature of experiment [11]: viability of uninfected HEp-2 cells – cell-based, HTS, cytotoxicity control for RSV inhibitor project, dose response (AID 2410). It counts as functional. The note with it: human respiratory syncytial virus.
For experiment [12], the target named is Cytochrome P450 2C9 (Homo sapiens, UniProt P11712).
Sequence of Cytochrome P450 2C9 (P11712 whole entry): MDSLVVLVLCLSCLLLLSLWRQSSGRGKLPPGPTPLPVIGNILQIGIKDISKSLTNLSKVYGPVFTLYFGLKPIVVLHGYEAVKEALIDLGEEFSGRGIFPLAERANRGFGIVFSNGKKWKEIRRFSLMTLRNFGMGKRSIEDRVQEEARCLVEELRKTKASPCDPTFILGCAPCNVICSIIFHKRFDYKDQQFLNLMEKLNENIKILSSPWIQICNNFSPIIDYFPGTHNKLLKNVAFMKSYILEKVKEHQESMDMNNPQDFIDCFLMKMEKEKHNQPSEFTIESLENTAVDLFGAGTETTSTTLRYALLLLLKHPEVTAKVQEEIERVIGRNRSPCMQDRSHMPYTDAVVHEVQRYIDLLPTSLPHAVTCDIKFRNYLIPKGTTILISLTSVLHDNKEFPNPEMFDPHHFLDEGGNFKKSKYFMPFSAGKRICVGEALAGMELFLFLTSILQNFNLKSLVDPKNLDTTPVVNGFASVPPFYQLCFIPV
Experiment [13] concerns the target FAD-linked sulfhydryl oxidase ALR (Homo sapiens, UniProt P55789). The experiment in a line: ALR-catalysed DTT oxidation blockers – biochemical, H2O2 detection, luminescence, cherry-pick, dose response (AID 493248).

Each structure is given as a SMILES string. Active and inactive are the calls of the source.

Results on 23 molecules are retold here after ChEMBL document CHEMBL1201862, “PubChem BioAssay data set” (2004).

One may read the EC50 as the concentration that produces a half-maximal response. The term IC50 denotes the concentration that inhibits the measured activity by half. In general, AC50 refers to the midpoint of the concentration-response curve, whichever way the signal moves. The term CC50 denotes the concentration giving 50% cytotoxicity.

Sequence of Genome polyprotein (P29990 2492-3391 limits assumed): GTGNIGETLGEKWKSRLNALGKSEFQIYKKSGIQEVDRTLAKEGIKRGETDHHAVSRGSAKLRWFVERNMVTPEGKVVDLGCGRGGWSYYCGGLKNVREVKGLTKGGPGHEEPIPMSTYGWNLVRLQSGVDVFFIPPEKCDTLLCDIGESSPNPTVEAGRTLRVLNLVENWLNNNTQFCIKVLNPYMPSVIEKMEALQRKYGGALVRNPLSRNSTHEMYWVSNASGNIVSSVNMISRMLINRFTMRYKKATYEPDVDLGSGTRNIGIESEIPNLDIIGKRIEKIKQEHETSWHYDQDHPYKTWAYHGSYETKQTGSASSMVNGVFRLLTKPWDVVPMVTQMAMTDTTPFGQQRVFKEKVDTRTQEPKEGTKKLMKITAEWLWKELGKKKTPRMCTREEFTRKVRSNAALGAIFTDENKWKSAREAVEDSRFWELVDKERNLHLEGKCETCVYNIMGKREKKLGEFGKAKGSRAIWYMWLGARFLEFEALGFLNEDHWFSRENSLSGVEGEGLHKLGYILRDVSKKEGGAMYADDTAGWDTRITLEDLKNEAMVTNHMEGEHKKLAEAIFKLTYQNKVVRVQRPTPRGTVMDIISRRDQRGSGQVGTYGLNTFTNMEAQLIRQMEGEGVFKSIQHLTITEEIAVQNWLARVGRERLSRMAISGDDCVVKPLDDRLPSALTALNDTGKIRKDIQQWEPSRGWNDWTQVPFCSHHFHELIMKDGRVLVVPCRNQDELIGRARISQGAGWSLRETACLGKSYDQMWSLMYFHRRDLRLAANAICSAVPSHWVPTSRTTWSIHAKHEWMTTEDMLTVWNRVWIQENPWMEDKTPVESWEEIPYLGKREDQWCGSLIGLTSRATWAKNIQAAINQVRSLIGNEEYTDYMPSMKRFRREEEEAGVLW
Sequence of FAD-linked sulfhydryl oxidase ALR (P55789 whole entry): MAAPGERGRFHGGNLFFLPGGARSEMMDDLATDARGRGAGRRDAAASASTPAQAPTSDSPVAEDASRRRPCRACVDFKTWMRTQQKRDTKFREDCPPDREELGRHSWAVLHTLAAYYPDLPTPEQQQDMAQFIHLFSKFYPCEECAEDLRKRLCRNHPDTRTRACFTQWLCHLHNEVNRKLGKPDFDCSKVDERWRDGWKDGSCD

For `O=C(c1ccco1)N1CCN(c2ncnc3c(-c4ccccc4)nsc23)CC1`, the EC50 in experiment [1] was 108 µM (active); in experiment [2], 9.83 µM (active).
Consider `O=S(=O)(O)c1cccc2cccc(Nc3ccccc3)c12`, for which the IC50 in experiment [3] is > 100 µM (active).
On to `Cc1noc(C)c1C(=O)OCC(=O)NC(c1ccccc1)c1ccccc1`, for which the AC50 in experiment [4] is 3.16 µM (inconclusive).
Consider `COc1ccccc1CN1CCCC2(CCN(C(=O)c3c(C)noc3C)CC2)C1`, for which the concentration at half-maximal activity (AC50) in experiment [4] was 12.6 µM (inconclusive); in [5], 10 µM (inconclusive).
Take `COc1cc(C(c2c(C)[nH][nH]c2=O)c2c(C)[nH][nH]c2=O)cc([N+](=O)[O-])c1O`: the concentration for a half-maximal effect (EC50) is 7.63 µM (active) in experiment [6], 4.74 µM (active) in experiment [7] and 0.248 µM (active) in experiment [9]. The AC50 in [8] is 0.42 µM (active).
As to `CN1CCN(c2nc(-c3ccccc3C(F)(F)F)nc3ccccc23)CC1`, the AC50 in experiment [4] was 39.8 µM (inconclusive); in [5] it was 20 µM (inconclusive).
Take `CC1=NN(c2ccc(Cl)cc2)C(=O)C1`: the AC50 in [8] was 2.74 µM (active). Besides, the half-maximal effective concentration (EC50) in experiment [9] was 2.67 µM (active).
As for `CCOC(=O)c1ccc(NC(=O)NCc2cccnc2)cc1`, in experiment [10], the concentration at half-maximal activity (AC50) is 2.09 µM (active).
As for `Cc1cccc(N2CC(C(=O)OCC(=O)c3ccc(OC(=O)c4cccs4)cc3)CC2=O)c1C` (stereo not given), the AC50 in experiment [8] is 97.7 µM (active). Besides, the EC50 in [9] is 25 µM (active).
Taken in the same sequence, the figures for `CCc1ccc(C2C(C#N)=C(N)Oc3[nH]nc(CC(=O)OC)c32)cc1` (stereo not given) were 13.8 µM (active) and 8.36 µM (active).
Turning to `CN(Cc1ccccc1)C(=O)c1nc2ccccn2c1CN1CCCC1c1nccs1` (stereo not given), the AC50 in [10] was > 260 µM (inactive).
As to `O=C(NCc1ccccc1Cl)c1ccc2c(=O)n(CCCN3CCCC3=O)c(=S)[nH]c2c1`, the AC50 in experiment [4] was 22.4 µM (inconclusive); in experiment [5] it was 15.8 µM (inconclusive).
For `CCc1ccc(N(C(=O)c2ccoc2C)C(C(=O)NC2CCCC2)c2ccc(OC)cc2)cc1` (stereo not given), the concentration at half-maximal activity (AC50) in experiment [4] is 15.8 µM (inconclusive); in experiment [5] it was 1.26 µM (inconclusive).
For `COC(=O)N/N=C/c1ccc(-c2cc(Cl)cc(Cl)c2)o1`, the EC50 is > 150 µM (inactive) in [1] and 5.04 µM (active) in experiment [2]. Also, the CC50 in experiment [11] was > 50 µM (active).
Turning to `COc1ccc(N2C(=O)CC(N(CCc3ccccc3)C(=O)/C=C/C(=O)O)C2=O)cc1` (stereo not given), the AC50 in experiment [8] was > 380 µM (inactive). For the same molecule, in experiment [9], the EC50 is > 380 µM (inactive).
Consider `O=C(NNc1ccc(Cl)cc1)C1CCC1`, for which the EC50 is 48.3 µM (active) in experiment [1] and > 38 µM (not active) in experiment [2].
For `O=C1/C(=C/c2cccc(F)c2)SC(=S)N1NS(=O)(=O)c1ccccc1`, the concentration for half-maximal inhibition (IC50) in experiment [3] was 30.6 µM (active).
For `O=C(c1ccco1)N1CCC[C@@]2(CCN(c3ccccc3)C2)C1`, in experiment [4], the AC50 is 20 µM (inconclusive).
In the case of `Cc1cc(C2C(C#N)=C(N)Oc3[nH]nc(C)c32)c(C)s1` (stereo not given), the AC50 is 10.9 µM (active) in experiment [8], 7.08 µM (inconclusive) in [5] and 10 µM (inconclusive) in experiment [12]. Moreover, the concentration for a half-maximal effect (EC50) in experiment [9] was 3.32 µM (active).
Turning to `O=C(CN1C(=O)/C(=C/c2ccccc2)SC1=S)NNC(=O)c1ccccc1O`, the EC50 in experiment [1] is > 160 µM (inconclusive); in experiment [2], > 38 µM (not active).
With `CCOC(=O)c1nc(C)n(-c2ccc(Cl)cc2)n1`, the AC50 in experiment [8] is > 380 µM (inactive). Further, the EC50 in experiment [9] is > 380 µM (inactive).
As to `O[C@@H](C1=C/C(=C\c2ccncc2)c2ccccc21)c1ccncc1`, the AC50 in experiment [4] was 1.58 µM (inconclusive).
Regarding `O=C1NN(c2ccc(Cl)c(Cl)c2)C(=O)/C1=C/c1ccc(-c2ccccc2C(=O)O)o1`, in [1], the EC50 was > 160 µM (inactive). In addition, the concentration at half-maximal activity (AC50) in experiment [13] is 0.26 µM (active). The IC50 in experiment [3] is 7.41 µM (active).
